Test results reported in patent US20100028973A1, “METHOD FOR PRO[…] VIRUS, HOLLOW FIBER FOR CULTURING HEPATITIS VIRUS-INFECTED CELLS, AND USE THEREOF” (KYOTO UNIVERSITY, priority 2006, published 2010).

Tested on: patient's serum-derived HCV
Test: HCV RNA in HuS-E/2 cells cultured in a hollow fiber and infected with patient's serum-derived HCV, with drug added (Example 5)
Assay type: cell-based, hepatitis C virus (HCV)
Details: NIM811 1 μg/ml; added after 24 hours of infection; HuS-E/2 cells in hollow fiber; collected after 3, 5 and 7 days; PCR
Description: HuS-E/2 cells with a density of 1×10^5 cells/well were packed into a lumen of a hollow fiber of a cellulose triacetate hollow fiber module (Toyobo Co., Ltd.; Code: TMHFK-001) by applying a centrifugal force of 80 G for 90 seconds, and then were shake-cultured with use of a 12-well plate. After 24 hours, the culture fluid was replaced with 0.8 ml of a culture fluid, prepared with use of human hepatocellular serum-free culture fluid (Toyobo Co., Ltd.; Code: TMHHM-001), which contained serum-derived HCV with 2×10^5 genome copies/ml. After 24 hours of infection, the culture fluid was removed, and the HuS-E/2 cells were washed with PBS three times. Then, three types of new culture fluid were separately added, namely a culture fluid containing INF alpha (1000 IU/ml), a culture fluid containing NIM811 (1 μg/ml), and a culture fluid containing neither of them. Each of the culture fluids was replaced with a new one every two days. The HuS-E/2 cells were collected after 3, 5, and 7 days of infection with serum-derived HCV, and their total RNA was collected with use of a Sepasol I (Nacalai Tesque, Inc). The total RNA was assayed for HCV RNA by a PCR method.

## C/C=C/C[C@@H](C)[C@@H](O)[C@H]1C(=O)N[C@@H](CC)C(=O)N(C)CC(=O)N(C)[C@@H]([C@@H](C)CC)C(=O)N[C@@H](C(C)C)C(=O)N(C)[C@@H](CC(C)C)C(=O)N[C@@H](C)C(=O)N[C@H](C)C(=O)N(C)[C@@H](CC(C)C)C(=O)N(C)[C@@H](CC(C)C)C(=O)N(C)[C@@H](C(C)C)C(=O)N1C [NIM811]
  proliferation of patient's serum-derived HCV in the cells (HCV RNA): remarkably inhibits
